Source: ChEMBL document CHEMBL5131409, “Synthesis and characterization of chiral 6-azaspiro[2.5]octanes as potent and selective antagonists of the M4 muscarinic acetylcholine receptor” (Bioorg Med Chem Lett, 2022)

Assays:
[1] = Plasma clearance in rat at 3 mg/kg, iv; assay type: ADME, organism-based
Cytochrome P450 1A2 = biological target: T1, Cytochrome P450 1A2 (Homo sapiens, UniProt P05177); experiment: Inhibition of CYP1A2 in human liver microsomes using cocktail of isoform-specific probe substrate; assay type: ADME, Microsome
T1 sequence (P05177 whole entry): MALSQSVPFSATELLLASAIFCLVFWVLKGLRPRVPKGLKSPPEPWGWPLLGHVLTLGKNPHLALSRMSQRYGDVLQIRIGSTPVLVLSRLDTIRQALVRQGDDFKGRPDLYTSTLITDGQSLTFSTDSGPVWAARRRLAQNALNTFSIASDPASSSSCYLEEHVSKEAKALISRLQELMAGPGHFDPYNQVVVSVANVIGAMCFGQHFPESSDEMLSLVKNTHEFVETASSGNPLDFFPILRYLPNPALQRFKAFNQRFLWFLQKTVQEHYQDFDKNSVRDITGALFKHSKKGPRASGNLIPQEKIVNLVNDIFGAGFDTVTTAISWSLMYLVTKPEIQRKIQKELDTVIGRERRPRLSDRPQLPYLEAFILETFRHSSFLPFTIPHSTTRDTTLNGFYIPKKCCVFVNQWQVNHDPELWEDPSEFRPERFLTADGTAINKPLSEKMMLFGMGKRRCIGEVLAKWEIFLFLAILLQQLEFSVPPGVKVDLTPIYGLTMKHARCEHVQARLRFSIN

[2] = biological target: T2, Muscarinic acetylcholine receptor M2 (Homo sapiens, UniProt P08172); experiment: Inhibition of human muscarinic acetylcholine M2 receptor expressed in CHO cells co-expressing Gqi5 in the presence of acetylcholine at EC80 concentration by calcium mobilization assay; assay type: functional, cell-based
T2 sequence (P08172 whole entry): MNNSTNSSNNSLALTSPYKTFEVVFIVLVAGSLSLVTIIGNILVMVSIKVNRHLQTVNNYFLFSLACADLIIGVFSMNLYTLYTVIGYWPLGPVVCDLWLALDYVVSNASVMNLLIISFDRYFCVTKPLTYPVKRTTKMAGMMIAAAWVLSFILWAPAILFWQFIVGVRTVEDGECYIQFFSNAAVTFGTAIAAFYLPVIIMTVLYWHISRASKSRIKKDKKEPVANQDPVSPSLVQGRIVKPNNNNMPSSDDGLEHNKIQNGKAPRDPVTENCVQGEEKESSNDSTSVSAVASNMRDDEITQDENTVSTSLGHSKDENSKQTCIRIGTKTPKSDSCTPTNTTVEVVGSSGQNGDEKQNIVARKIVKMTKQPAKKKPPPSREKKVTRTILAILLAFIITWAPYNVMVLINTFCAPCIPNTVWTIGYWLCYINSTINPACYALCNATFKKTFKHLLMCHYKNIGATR

[3] = Cmax in mouse brain at 3 mg/kg, ip; assay type: ADME, organism-based; design: dose 3 mg/kg, route ip
[4] = biological target: T3, Muscarinic acetylcholine receptor M4 (Homo sapiens, UniProt P08173); experiment: Inhibition of human muscarinic acetylcholine M4 receptor expressed in CHO cells co-expressing Gqi5 in the presence of acetylcholine at EC80 concentration by calcium mobilization assay; assay type: functional, cell-based
T3 sequence (P08173 whole entry): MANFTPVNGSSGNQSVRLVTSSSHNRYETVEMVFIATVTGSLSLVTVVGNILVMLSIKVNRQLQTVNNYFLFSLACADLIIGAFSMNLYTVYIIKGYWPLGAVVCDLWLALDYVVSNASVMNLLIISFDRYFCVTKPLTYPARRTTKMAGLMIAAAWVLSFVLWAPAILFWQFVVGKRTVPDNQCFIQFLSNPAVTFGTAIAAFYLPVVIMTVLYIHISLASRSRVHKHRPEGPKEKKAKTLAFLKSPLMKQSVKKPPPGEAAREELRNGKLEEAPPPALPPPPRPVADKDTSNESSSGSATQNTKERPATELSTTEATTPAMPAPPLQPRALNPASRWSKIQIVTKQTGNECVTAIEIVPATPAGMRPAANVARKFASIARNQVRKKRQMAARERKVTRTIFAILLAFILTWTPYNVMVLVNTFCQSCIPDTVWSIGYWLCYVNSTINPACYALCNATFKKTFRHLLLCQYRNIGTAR

[5] = biological target: T4, Muscarinic acetylcholine receptor M5 (Rattus norvegicus, UniProt P08911); experiment: Inhibition of rat muscarinic acetylcholine M5 receptor expressed in CHO cells co-expressing Gqi5 preincubated with compound followed by acetylcholine addition at EC80 concentration by calcium mobilization assay; assay type: functional, cell-based
T4 sequence (P08911 whole entry): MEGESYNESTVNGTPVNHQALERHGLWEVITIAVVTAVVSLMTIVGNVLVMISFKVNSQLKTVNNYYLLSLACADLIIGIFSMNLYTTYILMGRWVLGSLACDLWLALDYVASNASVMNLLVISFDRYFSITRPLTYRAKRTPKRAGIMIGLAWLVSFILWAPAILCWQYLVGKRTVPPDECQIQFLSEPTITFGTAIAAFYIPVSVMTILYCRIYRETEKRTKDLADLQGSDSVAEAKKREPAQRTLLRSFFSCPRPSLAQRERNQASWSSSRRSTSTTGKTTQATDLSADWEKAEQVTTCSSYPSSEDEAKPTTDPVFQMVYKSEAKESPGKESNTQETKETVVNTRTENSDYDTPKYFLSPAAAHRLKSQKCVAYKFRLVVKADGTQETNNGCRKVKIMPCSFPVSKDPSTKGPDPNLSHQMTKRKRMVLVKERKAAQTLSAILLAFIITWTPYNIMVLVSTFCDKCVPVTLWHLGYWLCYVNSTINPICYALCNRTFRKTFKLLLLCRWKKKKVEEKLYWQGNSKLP

[6] = biological target: T5, Muscarinic acetylcholine receptor M4 (Homo sapiens) (UniProt P08173); experiment: Antagonist activity at human muscarinic acetylcholine M4 receptor expressed in CHO cells co-expressing Gqi5 assessed as minimal acetylcholine response by calcium mobilization assay relative to control; assay type: functional, cell-based; design: scale not given: the % may be the effect or the level left; details: filed as antagonist
T5 sequence (whole entry): T3 sequence (P08173 whole entry)

[7] = Ratio of AUC (0.25 to last) in rat brain to plasma at 3 mg/kg, ip; assay type: ADME, organism-based; details: read-out: Ratio AUC
[8] = biological target: T6, Muscarinic acetylcholine receptor M1 (Homo sapiens, UniProt P11229); experiment: Inhibition of human muscarinic acetylcholine M1 receptor expressed in CHO cells co-expressing Gqi5 preincubated with compound followed by acetylcholine addition at EC80 concentration by calcium mobilization assay; assay type: functional, cell-based
T6 sequence (P11229 whole entry): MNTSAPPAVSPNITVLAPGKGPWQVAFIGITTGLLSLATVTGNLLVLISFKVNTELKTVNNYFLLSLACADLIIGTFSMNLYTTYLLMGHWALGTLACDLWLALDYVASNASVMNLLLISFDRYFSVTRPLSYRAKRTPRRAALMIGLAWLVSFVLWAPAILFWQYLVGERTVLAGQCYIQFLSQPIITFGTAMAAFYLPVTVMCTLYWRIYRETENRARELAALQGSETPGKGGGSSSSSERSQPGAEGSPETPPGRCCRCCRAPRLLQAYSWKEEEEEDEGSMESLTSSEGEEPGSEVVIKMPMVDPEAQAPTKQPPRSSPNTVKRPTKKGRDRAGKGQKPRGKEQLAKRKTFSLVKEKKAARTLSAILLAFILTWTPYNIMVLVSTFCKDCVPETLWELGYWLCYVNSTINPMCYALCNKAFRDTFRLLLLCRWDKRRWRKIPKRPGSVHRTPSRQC

clearance [1]: 257 mL/min/kg
IC50 (Cytochrome P450 1A2): > 30 µM
IC50 [2]: > 10 µM
Cmax [3]: 738 ng/g
IC50 [4]: 0.071 µM
IC50 [5]: > 10 µM
Activity [6]: 3.2%
Kp [7]: 0.23
IC50 [8]: > 10 µM
SMILES: CC(=O)Nc1ccc(-c2ccc(NC[C@@H]3CC34CCN(CC3CCOCC3)CC4)nn2)cc1
